Test results taken from paper PMC2657875 (Biochemistry, 2008).
Like-named read-outs stand apart in the source and are kept apart here. Each block holds one molecule with its values, some of them ahead of it.

Experiments:
[1] = target: T1, human NAMPT (Homo sapiens, UniProt P43490); assay: NAMPT kinetic parameters without ATP; type: biochemical; conditions: non ATP-coupled NMN synthesis
[2] = target: T1, human NAMPT; assay: Inhibition of non ATP-coupled NMN synthesis; type: biochemical
[3] = target: T1, human NAMPT; assay: Inhibition of ATP-coupled NMN synthesis; type: biochemical
[4] = target: T1, human NAMPT; assay: Stimulated ATPase activity of NAMPT; type: biochemical; conditions: 1 mM compound, 2 mM ATP; for ATP hydrolysis rate (ATPase activity): […] enzyme
[5] = target: T1, human NAMPT; assay: ADP/ATP isotope exchange catalyzed by NAMPT; type: biochemical; conditions: for concentration required for half-maximal exchange activity: ADP/ATP exchange, 0.6 µM enzyme
[6] = target: T1, human NAMPT; assay: NAMPT kinetic parameters with ATP; type: biochemical
[7] = target: T1, human NAMPT; conditions: continuous fluorometric coupled assay, with ATP (2.5 mM)
[8] = cited from earlier work
[9] = system: human vascular smooth muscular cells; conditions: cited from earlier work
[10] = system: Salmonella typhimurium NAPT; conditions: cited from earlier work

T1 sequence (P43490 whole entry): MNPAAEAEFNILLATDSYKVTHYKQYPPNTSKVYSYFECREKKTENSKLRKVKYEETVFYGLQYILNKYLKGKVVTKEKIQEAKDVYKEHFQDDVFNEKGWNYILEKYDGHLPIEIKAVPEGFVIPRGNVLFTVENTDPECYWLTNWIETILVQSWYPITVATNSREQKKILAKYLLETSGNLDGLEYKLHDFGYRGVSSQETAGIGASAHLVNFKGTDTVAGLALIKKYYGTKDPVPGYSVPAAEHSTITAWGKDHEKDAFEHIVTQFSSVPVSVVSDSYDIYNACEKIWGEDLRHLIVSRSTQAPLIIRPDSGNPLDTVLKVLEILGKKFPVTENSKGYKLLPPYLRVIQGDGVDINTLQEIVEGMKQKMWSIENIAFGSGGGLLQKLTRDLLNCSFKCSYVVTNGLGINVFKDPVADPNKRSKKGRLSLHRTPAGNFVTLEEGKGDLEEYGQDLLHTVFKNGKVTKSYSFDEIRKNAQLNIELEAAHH

Km ([1]; read-out: Km of Pi): 180 ± 20 µM
Structure (SMILES): O=P(O)(O)O [Pi]

ATP hydrolysis rate (ATPase activity) [4]: 1.1 min⁻¹
Structure (SMILES): O=P(O)(O)OP(=O)(O)O [pyrophosphate]

ATP hydrolysis rate (ATPase activity) [4]: 2.6 min⁻¹
Structure (SMILES): O=P(O)(O)NP(=O)(O)O [PNP, imidodiphosphate, reference compound]

Continued, molecule first:

Structure (SMILES): NC(=O)c1ccc[n+]([C@@H]2O[C@H](COP(=O)([O-])OP(=O)(O)OC[C@H]3O[C@@H](n4cnc5c(N)ncnc54)[C@H](O)[C@@H]3O)[C@@H](O)[C@H]2O)c1 [NAD^+, nicotinamide adenine dinucleotide]
Ki [2]: > 100000 nM
Ratio Km/Ki (NAM) ([3]; 2.5 mM ATP): < 1
Ratio Km/Ki (PRPP) ([3]; 2.5 mM ATP): 5
Ki ([3]; Ki versus NAM, 2.5 mM ATP): 2100 ± 200 nM
Ki ([3]; Ki versus PRPP, 2.5 mM ATP): 140 ± 14 nM

Structure (SMILES): Nc1ncnc2c1ncn2[C@@H]1O[C@H](COP(=O)(O)OP(=O)(O)OP(=O)(O)OP(=O)(O)OP(=O)(O)OC[C@H]2O[C@@H](n3cnc4c(N)ncnc43)[C@H](O)[C@@H]2O)[C@@H](O)[C@H]1O [Ap5A, P^1,P^5-di(adenosine-5’-) pentaphosphate, reference compound]
effect on ADP/ATP exchange ([5]; 10 µM): retained the same exchange rate

Structure (SMILES): NC(=O)c1cccnc1 [NAM, nicotinamide]
Km ([6]; read-out: apparent Km (affinity), direct [14C]NAM assay with ATP, NAD+ present): 0.017 ± 0.002 µM
Km [7]: 0.057 ± 0.006 µM
Km ([1]; no Pi): 0.855 ± 0.022 µM
Km ([1]; with Pi (2 mM phosphate)): 0.235 ± 0.017 µM

Structure (SMILES): O=C(/C=C/c1cccnc1)NCCCCC1CCN(C(=O)c2ccccc2)CC1 [FK866, (E)-N-[4-(1-benzoylpiperidin-4-yl)butyl]-3-(pyridin-3-yl) acrylamide]
binding to plasma proteins ([8]; clinical trials): substantial drug binding to plasma proteins
bioavailability ([8]; clinical trials): low bioavailability
intravenous clearance ([8]; clinical trials): rapid intravenous clearance
objective responses ([8]; continuous intravenous infusions over 96 h for a period of 4 weeks): no objective responses
NAD+ levels [9]: low levels of NAD^+
SIRT1 activity [9]: decrease of SIRT1 activity

Structure (SMILES): Nc1ncnc2c1ncn2[C@@H]1O[C@H](COP(=O)(O)OP(=O)(O)O)[C@@H](O)[C@H]1O [ADP]
concentration required for half-maximal exchange activity [5]: 0.44 ± 0.05 mM

Structure (SMILES): Nc1ncnc2c1ncn2[C@@H]1O[C@H](COP(=O)(O)OP(=O)(O)OP(=O)(O)O)[C@@H](O)[C@H]1O [ATP]
concentration required for half-maximal exchange activity [5]: 2.2 ± 0.2 mM
Km ([6]; ATP-coupled NMN synthesis): 7400 ± 1500 µM
concentration above which NMN synthesis is inhibited ([6]; ATP-coupled NMN synthesis): above 4 mM

Structure (SMILES): NC(=O)C1=CN([C@@H]2O[C@H](COP(=O)(O)OP(=O)(O)OC[C@H]3O[C@@H](n4cnc5c(N)ncnc54)[C@H](O)[C@@H]3O)[C@@H](O)[C@H]2O)C=CC1 [NADH]
Ki ([2]; read-out: Ki versus NAM, non ATP-coupled NMN synthesis, competitive vs NAM): > 100000 nM
Ratio Km/Ki (NAM) ([3]; 2.5 mM ATP): < 1
Ratio Km/Ki (PRPP) ([3]; 2.5 mM ATP): 3
Ki ([3]; read-out: Ki versus NAM, 2.5 mM ATP): 3200 ± 200 nM
Ki ([3]; read-out: Ki versus PRPP, 2.5 mM ATP): 220 ± 20 nM

Structure (SMILES): O=P(O)(O)OC[C@H]1O[C@H](OP(=O)(O)OP(=O)(O)O)[C@H](O)[C@@H]1O [PRPP, α-D-5-phosphoribosyl-1-pyrophosphate]
effect on ADP/ATP exchange ([5]; 100 µM): near-complete inhibition
Km ([10]; ATP-coupled NAMN synthesis): 22 ± 3.3 µM
Km ([10]; non ATP-coupled NAMN synthesis): 4500 ± 2200 µM
Km ([6]; ATP-coupled NMN synthesis): 0.63 ± 0.03 µM
fold lowering of Km by ATP ([6]; ATP-coupled vs non ATP-coupled): 10 fold
effect on ATP hydrolysis [4]: inhibited ATP hydrolysis
Km ([1]; no Pi): 7.2 ± 0.6 µM
Km ([1]; with Pi (2 mM phosphate)): 11.7 ± 0.8 µM
